Results from US6461997B1, “Triazole sulfones having herbicidal activity” (Monsanto Technology LLC, priority 1999, dated 2002).

Legend:
[1] = tested on: SORHA (johnsongrass (seedling)); test: Pre-emergence herbicidal activity, warm season; format: in vivo, Sorghum halepense; conditions: GR80 = lowest tested rate (300, 100, 30, 10 g/ha) with 80% or greater inhibition; approx. 14 days after treating; 30/21° C.
In short: (§1)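 Activity is expressed as the rate giving 80% inhibition, with 300, 100, 30 and 10 g/ha typically tested. An asterisk marks activity short of 80% at the top rate. Warm-season grasses were held at 30/21 °C; cool-season blackgrass and wild buckwheat at 18/13 °C; scoring at about 14 days.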

[2] = tested on: GALAP (catchweed bedstraw); test: Pre-emergence herbicidal activity, cool season; format: in vivo, Galium aparine; conditions: lowest tested rate with 80% or greater inhibition; rates 300, 100, 30, 10 g/ha; about 14 days
In short: (§2)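 Seeds sown in sterilised fertilised topsoil received surface-applied compound in 50:50 acetone/water, typically at 300, 100, 30 and 10 g/ha, then greenhouse-grown at 30/21° C (warm-season species) or 18/13° C (cool-season species). Percent inhibition versus untreated plants was scored at about 14 days, giving GR80; an asterisk marks activity short of 80% at the top rate.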

POROL (common purslane) = test: Pre-emergence herbicidal activity, warm season; format: in vivo, Portulaca oleracea; conditions: GR80 = lowest tested rate (300, 100, 30, 10 g/ha) with 80% or greater inhibition; approx. 14 days after treating; 30/21° C.
In short: as §2

SINAR (wild mustard) = test: Pre-emergence herbicidal activity, cool season; format: in vivo, Sinapis arvensis; conditions: lowest tested rate with 80% or greater inhibition; rates 300, 100, 30, 10 g/ha; about 14 days
In short: as §2

[3] = tested on: VERPE (creeping speedwell); test: Pre-emergence herbicidal activity, cool season; format: in vivo, Veronica persicaria; conditions: lowest tested rate with 80% or greater inhibition; rates 300, 100, 30, 10 g/ha; about 14 days
In short: as §2

LOLMG (annual ryegrass) = test: Pre-emergence herbicidal activity, cool season; format: in vivo, Lolium multiflorum; conditions: GR80 = lowest tested rate (300, 100, 30, 10 g/ha) with 80% or greater inhibition; approx. 14 days after treating; 18/13° C.
In short: as §2

CONAR (field bindweed) = test: Pre-emergence herbicidal activity, warm season; format: in vivo, Convolvulus arvensis; conditions: GR80 = lowest tested rate (300, 100, 30, 10 g/ha) with 80% or greater inhibition; approx. 14 days after treating; 30/21° C.
Description: (§3) Tables 5 to 8 summarize results of tests conducted as described below to determine the pre-emergence herbicidal activity, in the form of a GR80 value, of illustrative compounds of this invention. […] Compounds of the invention were typically applied at rates of 300, 100, 30, and 10 g/ha. Where herbicidal activity was evident but 80% inhibition was not achieved at the highest rate tested, an asterisk (*) is shown in the following tables.
(§4) The pre-emergence tests were conducted by the following procedure. Topsoil was sieved to pass through a 1.27 cm screen. Fertilizer was added to the topsoil and the mixture was then sterilized by heating. The topsoil mixture was placed in a pot and compacted to a depth of 1.0 to 1.25 cm from the top of the pot. Seeds of each of several monocotyledonous and dicotyledonous annual plant species were placed on top of the soil. Additional soil was subsequently placed over the seeds to level-fill the pot. A known amount of each test compound dissolved or suspended in an appropriate organic solvent was diluted with a 50:50 mix of acetone and water and applied to the surface of the soil. After treatment the plants were placed in a greenhouse where they received 0.64 cm of overhead irrigation. All subsequent watering consisted of a light overhead mist and/or subirrigation as needed for germination and growth. Tables 5 and 6 below relate to warm season plant species which were placed after pre-emergence treatment in a greenhouse with a 30/21° C. day/night temperature regime. Tables 7 and 8 below relates to cool season plant species placed after pre-emergence treatment in a greenhouse or growth chamber with an 18/13° C. day/night temperature regime.
(§5) Approximately 14 days after planting and treating, the plants were observed and herbicidal efficacy recorded as percent inhibition by comparison with untreated plants.
(§6) The plant species usually regarded as weeds which were utilized in the tests are identified in the tables below according to the following legend, in which “d” indicates a dicotyledonous species and “m” a monocotyledonous species. All monocotyledonous species included in the tests herein are grasses.

ECHCG (barnyardgrass) = test: Pre-emergence herbicidal activity, warm season; format: in vivo, Echinochloa crus-galli; conditions: GR80 = lowest tested rate (300, 100, 30, 10 g/ha) with 80% or greater inhibition; approx. 14 days after treating; 30/21° C.
In short: as §1

SASKR (russian thistle) = test: Pre-emergence herbicidal activity, cool season; format: in vivo, Salsola kali; conditions: lowest tested rate with 80% or greater inhibition; rates 300, 100, 30, 10 g/ha; about 14 days
In short: as §2

[4] = tested on: BRAPP (broadleaf signalgrass); test: Pre-emergence herbicidal activity, warm season; format: in vivo, Brachiaria platyphylla; conditions: GR80 = lowest tested rate (300, 100, 30, 10 g/ha) with 80% or greater inhibition; approx. 14 days after treating; 30/21° C.
In short: as §1

[5] = tested on: LAMPU (purple deadnettle); test: Pre-emergence herbicidal activity, cool season; format: in vivo, Lamium purpureum; conditions: lowest tested rate with 80% or greater inhibition; rates 300, 100, 30, 10 g/ha; about 14 days
In short: as §2

POLCO (wild buckwheat) = test: Pre-emergence herbicidal activity, cool season; format: in vivo, Polygonum convolvulus; conditions: lowest tested rate with 80% or greater inhibition; rates 300, 100, 30, 10 g/ha; about 14 days
In short: (§7)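 Herbicidal efficacy was judged visually as percent inhibition compared with untreated plants some 14 days after treatment, giving GR80 over doses of 10 to 300 g/ha. Proso millet and crabgrass grew at 30/21 °C; blackgrass and wild buckwheat grew at 18/13 °C.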

SOLNI (black nightshade) = test: Pre-emergence herbicidal activity, warm season; format: in vivo, Solanum nigrum; conditions: GR80 = lowest tested rate (300, 100, 30, 10 g/ha) with 80% or greater inhibition; approx. 14 days after treating; 30/21° C.
In short: as §2

[6] = tested on: CHEAL (common lambsquarters); test: Pre-emergence herbicidal activity, warm season; format: in vivo, Chenopodium album; conditions: GR80 = lowest tested rate (300, 100, 30, 10 g/ha) with 80% or greater inhibition; approx. 14 days after treating; 30/21° C.
In short: as §2

SETFA (giant foxtail) = test: Pre-emergence herbicidal activity, warm season; format: in vivo, Setaria faberi; conditions: GR80 = lowest tested rate (300, 100, 30, 10 g/ha) with 80% or greater inhibition; approx. 14 days after treating; 30/21° C.
In short: as §1

[7] = tested on: PANMI (wild proso millet); test: Pre-emergence herbicidal activity, warm season; format: in vivo, Panicum miliaceum; conditions: GR80 = lowest tested rate (300, 100, 30, 10 g/ha) with 80% or greater inhibition; approx. 14 days after treating; 30/21° C.
In short: as §7

ALOMY (blackgrass) = test: Pre-emergence herbicidal activity, cool season; format: in vivo, Alopecurus myosuroides; conditions: GR80 = lowest tested rate (300, 100, 30, 10 g/ha) with 80% or greater inhibition; approx. 14 days after treating; 18/13° C.
In short: as §7

[8] = tested on: AGSST (creeping bentgrass); test: Pre-emergence herbicidal activity, cool season; format: in vivo, Agrostis stolonifera; conditions: GR80 = lowest tested rate (300, 100, 30, 10 g/ha) with 80% or greater inhibition; approx. 14 days after treating; 18/13° C.
In short: as §2

SETVI (green foxtail) = test: Pre-emergence herbicidal activity, cool season; format: in vivo, Setaria viridis; conditions: GR80 = lowest tested rate (300, 100, 30, 10 g/ha) with 80% or greater inhibition; approx. 14 days after treating; 18/13° C.
In short: as §2

STEME (common chickweed) = test: Pre-emergence herbicidal activity, cool season; format: in vivo, Stellaria media; conditions: lowest tested rate with 80% or greater inhibition; rates 300, 100, 30, 10 g/ha; about 14 days
In short: as §2

PANDI (fall panicum) = test: Pre-emergence herbicidal activity, warm season; format: in vivo, Panicum dichotomiflorum; conditions: GR80 = lowest tested rate (300, 100, 30, 10 g/ha) with 80% or greater inhibition; approx. 14 days after treating; 30/21° C.
Description: as §3, §4, §5, §6

DIGSA (large crabgrass) = test: Pre-emergence herbicidal activity, warm season; format: in vivo, Digitaria sanguinalis; conditions: GR80 = lowest tested rate (300, 100, 30, 10 g/ha) with 80% or greater inhibition; approx. 14 days after treating; 30/21° C.
In short: as §7

SORVU (shattercane) = test: Pre-emergence herbicidal activity, warm season; format: in vivo, Sorghum vulgare; conditions: GR80 = lowest tested rate (300, 100, 30, 10 g/ha) with 80% or greater inhibition; approx. 14 days after treating; 30/21° C.
In short: as §1

[9] = tested on: CIRAR (canada thistle (seedling)); test: Pre-emergence herbicidal activity, warm season; format: in vivo, Cirsium arvense; conditions: GR80 = lowest tested rate (300, 100, 30, 10 g/ha) with 80% or greater inhibition; approx. 14 days after treating; 30/21° C.
In short: as §2

AMARE (redroot pigweed) = test: Pre-emergence herbicidal activity, warm season; format: in vivo, Amaranthus retroflexus; conditions: GR80 = lowest tested rate (300, 100, 30, 10 g/ha) with 80% or greater inhibition; approx. 14 days after treating; 30/21° C.
In short: as §2

AVEFA (wild oat) = test: Pre-emergence herbicidal activity, cool season; format: in vivo, Avena fatua; conditions: GR80 = lowest tested rate (300, 100, 30, 10 g/ha) with 80% or greater inhibition; approx. 14 days after treating; 18/13° C.
Description: as §3, §4, §5, §6

ABUTH (velvetleaf) = test: Pre-emergence herbicidal activity, warm season; format: in vivo, Abutilon theophrasti; conditions: GR80 = lowest tested rate (300, 100, 30, 10 g/ha) with 80% or greater inhibition; approx. 14 days after treating; 30/21° C.
In short: as §2

DATST (jimsonweed) = test: Pre-emergence herbicidal activity, warm season; format: in vivo, Datura stramonium; conditions: GR80 = lowest tested rate (300, 100, 30, 10 g/ha) with 80% or greater inhibition; approx. 14 days after treating; 30/21° C.
Description: as §3, §4, §5, §6

Structure (SMILES)	Pre-emergence activity (GR80) SORHA [1] [g/ha]	Pre-emergence activity GR80, GALAP [2]	Pre-emergence activity (GR80) POROL (POROL (common purslane)) [g/ha]	Pre-emergence activity GR80, SINAR (SINAR (wild mustard))	Pre-emergence activity GR80, VERPE [3]	Pre-emergence activity (GR80) CONAR (CONAR (field bindweed)) [g/ha]	Pre-emergence activity (GR80) ECHCG (ECHCG (barnyardgrass)) [g/ha]	Pre-emergence activity GR80, SASKR (SASKR (russian thistle))	Pre-emergence activity (GR80) BRAPP [4] [g/ha]	Pre-emergence activity GR80, LAMPU [5] [g/ha]	Pre-emergence activity GR80, POLCO (POLCO (wild buckwheat))	Pre-emergence activity (GR80) SOLNI (SOLNI (black nightshade)) [g/ha]	Pre-emergence activity (GR80) CHEAL [6] [g/ha]	Pre-emergence activity (GR80) SETFA (SETFA (giant foxtail)) [g/ha]	Pre-emergence activity (GR80) PANMI [7] [g/ha]	Pre-emergence activity (GR80) ALOMY (ALOMY (blackgrass)) [g/ha]	Pre-emergence activity (GR80) AGSST [8] [g/ha]	Pre-emergence activity (GR80) SETVI (SETVI (green foxtail)) [g/ha]	Pre-emergence activity GR80, STEME (STEME (common chickweed)) [g/ha]	Pre-emergence activity (GR80) SORVU (SORVU (shattercane)) [g/ha]	other results
CCSC(F)(F)S(=O)(=O)c1ncn(C(=O)N2CCCC2)n1 [Example 47]	300	300 g/ha	300	300 g/ha	10 g/ha	300	300	100 g/ha	300	30	[empty]	300	300	300	100	300	30	300	30	–	Pre-emergence activity (GR80) LOLMG (LOLMG (annual ryegrass)): 300 g/ha; Pre-emergence activity (GR80) PANDI (PANDI (fall panicum)): 300 g/ha
O=C(N1CCCC1)n1cnc(S(=O)(=O)C(F)(F)Cl)n1 [Example 83]	300	100 g/ha	100	[empty]	[empty]	300	–	300 g/ha	100	100	300 g/ha	300	100	300	100	300	100	300	300	300	Pre-emergence activity (GR80) DIGSA (DIGSA (large crabgrass)): 100 g/ha; Pre-emergence activity (GR80) CIRAR [9]: 100 g/ha; Pre-emergence activity (GR80) AMARE (AMARE (redroot pigweed)): 300 g/ha
CCSC(F)(F)S(=O)(=O)c1ncn(C(=O)N(C)C)n1 [Example 49]	300	300 g/ha	300	300 g/ha	300 g/ha	300	300	[empty]	300	300	[empty]	–	300	300	300	–	100	300	300	300	Pre-emergence activity (GR80) AVEFA (AVEFA (wild oat)): 300 g/ha; Pre-emergence activity (GR80) PANDI (PANDI (fall panicum)): 300 g/ha
CCN(CC)C(=S)n1cnc(S(=O)(=O)C(F)(F)Cl)n1 [Example 94]	300	[empty]	30	[empty]	[empty]	100	–	[empty]	10	300	10 g/ha	100	30	100	100	10	300	–	300	100	Pre-emergence activity (GR80) ABUTH (ABUTH (velvetleaf)): 100 g/ha; Pre-emergence activity (GR80) DIGSA (DIGSA (large crabgrass)): 300 g/ha; Pre-emergence activity (GR80) DATST (DATST (jimsonweed)): 300 g/ha; Pre-emergence activity (GR80) CIRAR [9]: 30 g/ha; Pre-emergence activity (GR80) AMARE (AMARE (redroot pigweed)): 10 g/ha
